In brackets after ≈: the same amount, converted by molar mass. Where two headings read alike, the source gives them in different places.
Tests used:
[1] = Lipophilicity determination by RP-HPLC (capacity factor k / log k); assay type: physicochemical; details: C18 column, MeOH 70% / H2O 30%, isocratic
Protocol: Hydrophobicities (log P/Clog P) of compounds 8 and 9 were calculated using two commercially available programs (ChemOffice Ultra 10.0 and ACD/LogP) and measured by means of RP-HPLC determination of capacity factors k with subsequent calculation of log k. The procedure was performed under isocratic conditions with methanol as an organic modifier in the mobile phase using an end-capped non-polar C18 stationary RP column. The results are shown in Table 1 and illustrated in Figure 1.
A Waters Alliance 2695 XE HPLC separation module and a Waters Photodiode Array Detector 2996 (Waters Corp., Milford, MA, USA) were used. A Symmetry® C18 5 μm, 4.6 × 250 mm, Part No. WAT054275 (Waters Corp., Milford, MA, USA) chromatographic column was used. The HPLC separation process was monitored by Empower™ 2 Chromatography Data Software, Waters 2009 (Waters Corp., Milford, MA, USA). A mixture of MeOH p.a. (70%) and H2O-HPLC – Mili-Q Grade (30%) was used as a mobile phase. The total flow of the column was 1.0 mL/min, injection volume, 30 μL, column temperature, 30 °C and sample temperature, 10 °C. The detection wavelength of 210 nm was chosen. The KI methanolic solution was used for the dead time (tD) determination. Retention times (tR) were measured in minutes. The capacity factors k were calculated using the Empower™ 2 Chromatography Data Software according to formula k = (tR - tD)/tD, where tR is the retention time of the solute, whereas tD denotes the dead time obtained using an unretained analyte. Log k, calculated from the capacity factor k, is used as the lipophilicity index converted to log P scale.

[2] = test system: Trichophyton mentagrophytes 445; assay: In vitro antifungal susceptibility testing (broth microdilution); assay type: cell-based; details: M38-A for moulds, IC50 value, read-out: MIC TM
Candida tropicalis 156 = assay: as above; assay type: cell-based; details: M27-A2 for yeasts, IC80 value
[3] = test system: Mycobacterium tuberculosis MTB CNCTC My 331/88; assay: In vitro antimycobacterial evaluation; assay type: cell-based; details: IC90 value
[4] = test system: Enterococcus sp. J 14365/08; assay: In vitro antibacterial susceptibility testing (broth microdilution); details: read-out: MIC EF
[5] = test system: Mycobacterium avium MA CNCTC My 330/88; assay: In vitro antimycobacterial evaluation; assay type: cell-based; details: IC90 value
[6] = test system: Staphylococcus aureus CCM 4516/08; assay: In vitro antibacterial susceptibility testing (broth microdilution); details: read-out: MIC SA
[7] = test system: Mycobacterium kansasii MK CNCTC My 235/80; assay: In vitro antimycobacterial evaluation; assay type: cell-based; details: IC90 value
[8] = test system: Staphylococcus epidermidis H 6966/08; assay: In vitro antibacterial susceptibility testing (broth microdilution); details: read-out: MIC SE
[9] = test system: methicilin resistant Staphylococcus aureus H 5996/08; assay: as above; details: MRSA, read-out: MIC MRSA

Row | Compound | log k [1] | MIC ([2]; 72h) | MIC ([2]; 120h) | MIC (Candida tropicalis 156; 24h) | MIC (Candida tropicalis 156; 48h) | MIC ([3]; 14h) | MIC ([3]; 21h) | MIC ([4]; SP.J14365/08, 24 h) | MIC ([4]; SP.J14365/08, 48 h) | MIC ([5]; 14h) | MIC ([5]; 21h) | MIC ([6]; CCM4516, 24 h) | MIC ([6]; CCM4516, 48 h) | MIC ([7]; 14h) | MIC ([7]; 21h) | MIC ([8]; H6966/08, 24 h) | MIC ([8]; H6966/08, 48 h) | MIC ([9]; 24 h) | MIC ([9]; 48 h)
1 | CC(C)[C@H](NC(=O)c1cc(Cl)ccc1O)C(=O)Nc1ccc(Cl)c(Cl)c1 [8o] | 0.8623 | > 125 µM | > 125 µM | > 125 µM | > 125 µM | 32 µM (≈ 13.3 µg/mL) | 32 µM (≈ 13.3 µg/mL) | > 500 µM | > 500 µM | 62.5 µM (≈ 26 µg/mL) | 125 µM (≈ 52 µg/mL) | > 500 µM | > 500 µM | 32 µM (≈ 13.3 µg/mL) | 62.5 µM (≈ 26 µg/mL) | > 500 µM | > 500 µM | > 500 µM | > 500 µM
2 | CC(C)[C@@H](NC(=O)c1cc(Cl)ccc1O)C(=O)Nc1ccc(Cl)c(Cl)c1 [8p] | 0.8614 | > 125 µM | > 125 µM | > 125 µM | > 125 µM | 16 µM (≈ 6.65 µg/mL) | 32 µM (≈ 13.3 µg/mL) | > 500 µM | > 500 µM | 62.5 µM (≈ 26 µg/mL) | 125 µM (≈ 52 µg/mL) | > 500 µM | > 500 µM | 32 µM (≈ 13.3 µg/mL) | 62.5 µM (≈ 26 µg/mL) | > 500 µM | > 500 µM | > 500 µM | > 500 µM
3 | CC(C)[C@@H](NC(=O)c1cc(Cl)ccc1O)C(=O)Nc1ccc(Br)cc1 [8t] | 0.6646 | > 125 µM | > 125 µM | > 125 µM | > 125 µM | 62.5 µM (≈ 26.6 µg/mL) | 62.5 µM (≈ 26.6 µg/mL) | > 125 µM | > 125 µM | 62.5 µM (≈ 26.6 µg/mL) | 62.5 µM (≈ 26.6 µg/mL) | > 125 µM | > 125 µM | 62.5 µM (≈ 26.6 µg/mL) | 125 µM (≈ 53.2 µg/mL) | > 125 µM | > 125 µM | > 125 µM | > 125 µM
4 | O=C(N[C@H](Cc1ccccc1)C(=O)Nc1ccc(Br)cc1)c1cc(Cl)ccc1O [8v] | 0.7673 | 500 µM (≈ 237 µg/mL) | > 500 µM | 500 µM (≈ 237 µg/mL) | > 500 µM | 32 µM (≈ 15.2 µg/mL) | 32 µM (≈ 15.2 µg/mL) | 62.5 µM (≈ 29.6 µg/mL) | 62.5 µM (≈ 29.6 µg/mL) | 250 µM (≈ 118 µg/mL) | 250 µM (≈ 118 µg/mL) | 3.9 µM (≈ 1.85 µg/mL) | 15.6 µM (≈ 7.4 µg/mL) | 32 µM (≈ 15.2 µg/mL) | 32 µM (≈ 15.2 µg/mL) | 62.5 µM (≈ 29.6 µg/mL) | 125 µM (≈ 59.2 µg/mL) | 7.81 µM (≈ 3.7 µg/mL) | 15.6 µM (≈ 7.4 µg/mL)
5 | O=C(O)c1cn(C2CC2)c2cc(N3CCNCC3)c(F)cc2c1=O [CPF, ciprofloxacin, reference compound] |  |  |  |  |  |  |  |  |  |  |  |  |  |  |  | 250 µM (≈ 82.8 µg/mL) | 250 µM (≈ 82.8 µg/mL) | 500 µM (≈ 166 µg/mL) | 500 µM (≈ 166 µg/mL)
6 | OC(Cn1cncn1)(Cn1cncn1)c1ccc(F)cc1F [FLU, fluconazole, reference compound] |  | 1.95 µM (≈ 0.597 µg/mL) | 3.91 µM (≈ 1.2 µg/mL) | 0.12 µM (≈ 0.0368 µg/mL) | > 125 µM |  |  |  |  |  |  |  |  |  |  |  |  |  | 
7 | NNC(=O)c1ccncc1 [INH, isoniazid, reference compound] |  |  |  |  |  | 0.5 µM (≈ 0.0686 µg/mL) | 0.5 µM (≈ 0.0686 µg/mL) |  |  | > 250 µM | > 250 µM |  |  | > 250 µM | > 250 µM |  |  |  | 
8 | CC1(C)S[C@@H]2[C@H](NC(=O)Cc3ccccc3)C(=O)N2[C@H]1C(=O)O [PEN, penicillin G, reference compound] |  |  |  |  |  |  |  | 7.81 µM (≈ 2.61 µg/mL) | 15.6 µM (≈ 5.22 µg/mL) |  |  | 0.24 µM (≈ 0.0803 µg/mL) | 0.24 µM (≈ 0.0803 µg/mL) |  |  | 31.6 µM (≈ 10.6 µg/mL) | 125 µM (≈ 41.8 µg/mL) | 125 µM (≈ 41.8 µg/mL) | 125 µM (≈ 41.8 µg/mL)

— publication PMC6259751, “Investigating Spectrum of Biological Activity of 4- and 5-Chloro-2-hydroxy-N-[2-(arylamino)-1-alkyl-2-oxoethyl]benzamides” (Molecules, 2011)
